The record followed here is BindingDB's records for patent US10479784 (VERTEX PHARMACEUTICALS INCORPORATED, 2019).

For the experiment, the target named is Serine/threonine-protein kinase ATR (Homo sapiens, UniProt Q13535). The experiment is described as follows: Inhibition Assay. Here is the method: Compounds were screened for their ability to inhibit ATR kinase using a radioactive-phosphate incorporation assay. Assays were carried out in a mixture of 50 mM Tris/HCl (pH 7.5), 10 mM MgCl2 and 1 mM DTT. Final substrate concentrations were […] (3mCi 33P ATP/mmol ATP, Perkin Elmer) and 800 μM target peptide ([…]).Assays were carried out at 25° C. in the presence of 5 nM full-length ATR. An assay stock buffer solution was prepared containing all of the reagents listed above, with the exception of ATP and the test compound of interest. […] The plate was pre-incubated for 10 minutes at 25° C. and the reaction initiated by addition of 15 μL [γ-33P]ATP (final concentration 10 μM).The reaction was stopped after […] by the addition of 30 μL 0.1M phosphoric acid containing 2 mM ATP. A multiscreen phosphocellulose filter 96-well plate (Millipore, Cat no. MAPHN0B50) was pretreated with 100 μL 0.2M phosphoric acid prior to the addition of 45 μL of the stopped assay mixture.
Chain of Serine/threonine-protein kinase ATR (Q13535 whole entry): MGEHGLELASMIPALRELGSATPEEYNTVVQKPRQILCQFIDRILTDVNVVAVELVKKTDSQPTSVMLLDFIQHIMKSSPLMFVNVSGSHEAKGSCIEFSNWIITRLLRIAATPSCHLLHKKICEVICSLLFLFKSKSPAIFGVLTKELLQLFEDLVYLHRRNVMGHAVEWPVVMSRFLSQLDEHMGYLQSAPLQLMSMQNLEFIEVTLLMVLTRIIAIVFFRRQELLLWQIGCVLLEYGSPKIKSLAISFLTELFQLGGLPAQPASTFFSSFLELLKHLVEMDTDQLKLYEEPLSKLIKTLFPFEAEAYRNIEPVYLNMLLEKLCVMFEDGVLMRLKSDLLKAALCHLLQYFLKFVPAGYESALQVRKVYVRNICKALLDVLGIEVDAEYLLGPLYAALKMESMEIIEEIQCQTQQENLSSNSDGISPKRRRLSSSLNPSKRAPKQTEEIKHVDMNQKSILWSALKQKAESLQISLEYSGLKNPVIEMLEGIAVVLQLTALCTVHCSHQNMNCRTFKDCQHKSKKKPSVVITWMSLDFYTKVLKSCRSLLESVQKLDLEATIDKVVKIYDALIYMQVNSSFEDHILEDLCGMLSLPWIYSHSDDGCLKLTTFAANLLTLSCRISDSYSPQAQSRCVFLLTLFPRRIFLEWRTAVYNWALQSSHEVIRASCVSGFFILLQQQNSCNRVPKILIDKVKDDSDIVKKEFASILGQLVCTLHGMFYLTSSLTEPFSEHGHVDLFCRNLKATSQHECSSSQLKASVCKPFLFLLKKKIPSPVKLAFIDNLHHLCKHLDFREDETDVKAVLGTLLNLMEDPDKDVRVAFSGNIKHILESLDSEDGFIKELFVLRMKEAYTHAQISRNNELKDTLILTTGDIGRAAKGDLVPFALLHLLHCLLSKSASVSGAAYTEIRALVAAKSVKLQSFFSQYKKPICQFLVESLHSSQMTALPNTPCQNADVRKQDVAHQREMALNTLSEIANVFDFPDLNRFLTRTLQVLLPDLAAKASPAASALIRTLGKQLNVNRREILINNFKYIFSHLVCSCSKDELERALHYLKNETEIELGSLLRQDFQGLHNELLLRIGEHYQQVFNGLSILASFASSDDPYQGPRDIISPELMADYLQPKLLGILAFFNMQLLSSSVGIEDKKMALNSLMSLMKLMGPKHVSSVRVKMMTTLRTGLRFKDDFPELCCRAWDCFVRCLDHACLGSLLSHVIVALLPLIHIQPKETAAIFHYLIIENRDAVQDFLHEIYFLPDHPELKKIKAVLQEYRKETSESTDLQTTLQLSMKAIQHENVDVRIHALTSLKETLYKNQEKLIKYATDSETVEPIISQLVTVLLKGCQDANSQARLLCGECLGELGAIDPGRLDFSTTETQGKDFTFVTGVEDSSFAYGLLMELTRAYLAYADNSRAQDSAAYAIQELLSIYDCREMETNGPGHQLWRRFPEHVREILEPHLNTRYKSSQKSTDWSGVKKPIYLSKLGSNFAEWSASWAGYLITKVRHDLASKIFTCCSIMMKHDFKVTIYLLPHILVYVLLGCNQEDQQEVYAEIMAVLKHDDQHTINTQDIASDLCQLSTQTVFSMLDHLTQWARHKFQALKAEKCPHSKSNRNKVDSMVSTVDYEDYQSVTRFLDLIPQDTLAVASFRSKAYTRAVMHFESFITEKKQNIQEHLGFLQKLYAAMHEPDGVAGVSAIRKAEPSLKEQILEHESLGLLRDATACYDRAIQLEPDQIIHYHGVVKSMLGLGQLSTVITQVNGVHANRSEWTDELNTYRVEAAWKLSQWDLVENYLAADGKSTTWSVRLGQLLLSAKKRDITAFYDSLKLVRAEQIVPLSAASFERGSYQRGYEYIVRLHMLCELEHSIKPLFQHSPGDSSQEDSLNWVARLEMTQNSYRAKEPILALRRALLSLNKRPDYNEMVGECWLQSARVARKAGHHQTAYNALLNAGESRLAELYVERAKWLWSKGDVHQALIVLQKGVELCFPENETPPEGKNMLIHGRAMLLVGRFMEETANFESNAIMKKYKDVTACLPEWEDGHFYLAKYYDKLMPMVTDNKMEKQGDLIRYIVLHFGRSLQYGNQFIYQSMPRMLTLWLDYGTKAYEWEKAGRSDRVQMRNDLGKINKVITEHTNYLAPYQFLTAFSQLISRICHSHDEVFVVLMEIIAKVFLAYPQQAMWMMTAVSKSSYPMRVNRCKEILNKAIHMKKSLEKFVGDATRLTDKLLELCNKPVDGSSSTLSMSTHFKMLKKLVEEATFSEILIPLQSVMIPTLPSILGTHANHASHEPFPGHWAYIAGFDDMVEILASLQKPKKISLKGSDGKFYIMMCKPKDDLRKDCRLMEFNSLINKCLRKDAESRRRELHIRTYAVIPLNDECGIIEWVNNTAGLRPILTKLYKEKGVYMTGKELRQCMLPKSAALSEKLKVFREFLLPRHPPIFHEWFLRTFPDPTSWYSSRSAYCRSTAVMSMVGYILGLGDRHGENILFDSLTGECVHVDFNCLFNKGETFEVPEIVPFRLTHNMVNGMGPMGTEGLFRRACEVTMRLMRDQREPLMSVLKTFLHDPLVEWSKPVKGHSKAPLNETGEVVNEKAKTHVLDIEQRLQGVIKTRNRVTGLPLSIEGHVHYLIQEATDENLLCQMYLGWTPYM

Broadly, the Ki is a measure of affinity in units of concentration, obtained from inhibition or displacement. High values mean a looser hold on the target, low ones a stronger hold on the target.

In turn, `CNCc1ccc(C(=N)OC(=N)c2nc(-c3ccc([S+]([O-])C(C)CCOC)cc3)cnc2N)c(F)c1` (configuration not stated) [US10479784, Compound IA-332] gave a Ki of under 10 nM.

The compound `CNCc1ccc(C(=N)OC(=N)c2nc(-c3ccc(S(=O)(=O)C(C)C)c(OC(F)(F)F)c3)cnc2N)cc1` [US10479784, Compound IA-290] displayed a Ki of under 10 nM.
